pIC50: −log10 of the molar value. Like-named read-outs stand apart in the source and are kept apart here.
What was measured:
[1] = biological target: VIM-1 (Pseudomonas aeruginosa (strain ATCC 15692 / DSM 22644 / CIP 104116 / JCM 14847 / LMG 12228 / 1C / PRS 101 / PAO1), UniProt A0A0F7KYQ8); assay: Enzyme activity: determination of IC50, fluorescence assay with CCF2-FA substrate (VIM-1); assay type: biochemical
[2] = biological target: NDM-1 (Klebsiella pneumoniae, UniProt C7C422); assay: biochemical; assay type: biochemical; conditions: read-out: NDM-1 IC50
[3] = biological target: IMP-1 (Serratia marcescens, UniProt P52699); assay: biochemical; assay type: biochemical; conditions: read-out: IMP-1 IC50
[4] = tested on: Serratia marcescens expressing IMP-1 (CL5741); assay: Antibiotic potentiation activity: synergistic concentration (MITC95) with imipenem, OD600 growth; assay type: cell-based; conditions: for Serratia marcescens expressing IMP-1 (CL5741) MITC95: concentration giving 95% inhibition of bacterial growth
Procedure, shortened: (§1)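 CLB30005 was precultured on Mueller Hinton agar with 8 ug/ml imipenem, the other strains on trypticase soy agar with 5% sheep blood, overnight at 35 °C. Saline suspensions diluted 1:100 in 1.1× CAMHB received compound and 4 μg/ml imipenem, then 22–24 h at 35 °C before absorbance reading.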

[5] = tested on: Escherichia coli expressing NDM-1 (CLB30016); assay: as above; assay type: cell-based; conditions: for Escherichia coli expressing NDM-1 (CLB 30016) MITC95: concentration giving 95% inhibition of bacterial growth
Procedure, shortened: as §1

[6] = tested on: Klebsiella pneumoniae expressing VIM-1 (IHMA599644); assay: as above; assay type: cell-based; conditions: for Klebsiella pneumoniae expressing VIM-1 (IHMA 599644) MITC95: concentration giving 95% inhibition of bacterial growth
Procedure, shortened: as §1

[7] = VIM-1 enzyme, CCF2-FA substrate, read-out: VIM-1 IC50
[8] = NDM-1 enzyme, CCF2-FA substrate
[9] = IMP-1 enzyme, CCF2-FA substrate
[10] = Serratia marcescens CL5741 (IMP-1), 95% growth inhibition
[11] = (CLB30016, NDM-1), 95% growth inhibition
[12] = Klebsiella pneumoniae IHMA599644 (VIM-1), 95% growth inhibition
[13] = VIM-1 IC50, fluorescence assay with CCF2-FA substrate
[14] = fluorescence assay with CCF2-FA substrate
[15] = fluorescence assay with CCF2-FA substrate, read-out: VIM-1 IC50
[16] = VIM-1 enzyme, CCF2-FA fluorescence assay, read-out: VIM-1 IC50
[17] = NDM-1 enzyme, CCF2-FA fluorescence assay
[18] = IMP-1 enzyme, CCF2-FA fluorescence assay
[19] = Serratia marcescens expressing IMP-1 (CL5741), 95% growth inhibition
[20] = Escherichia coli expressing NDM-1 (CLB30016), 95% growth inhibition
[21] = Klebsiella pneumoniae expressing VIM-1 (IHMA599644), 95% growth inhibition
[22] = CL5741 (IMP-1), 95% inhibition of bacterial growth
[23] = CLB30016 (NDM-1), 95% inhibition of bacterial growth
[24] = IHMA599644 (VIM-1), 95% inhibition of bacterial growth

Sequence of NDM-1 (C7C422 whole entry, looked up, species assumed): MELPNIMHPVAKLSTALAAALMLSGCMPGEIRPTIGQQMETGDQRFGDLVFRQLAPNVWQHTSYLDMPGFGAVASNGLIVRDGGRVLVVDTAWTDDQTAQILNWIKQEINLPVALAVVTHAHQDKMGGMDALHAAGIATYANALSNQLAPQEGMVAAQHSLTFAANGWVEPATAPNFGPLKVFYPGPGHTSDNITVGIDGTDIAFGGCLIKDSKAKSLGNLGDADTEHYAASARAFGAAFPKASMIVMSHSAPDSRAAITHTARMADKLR
Sequence of IMP-1 (P52699 whole entry, looked up): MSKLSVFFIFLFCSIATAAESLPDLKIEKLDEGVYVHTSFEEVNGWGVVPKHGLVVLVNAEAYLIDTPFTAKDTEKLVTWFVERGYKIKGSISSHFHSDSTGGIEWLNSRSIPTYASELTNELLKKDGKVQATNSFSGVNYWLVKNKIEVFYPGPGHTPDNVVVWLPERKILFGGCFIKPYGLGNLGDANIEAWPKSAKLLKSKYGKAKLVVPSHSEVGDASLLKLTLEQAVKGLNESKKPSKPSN

Compound: NS(=O)(=O)c1cccc(-c2cnc3ccc(Cl)nn23)c1-c1nnn[nH]1 [Example 652, 3-(6-chloroimidazo[1,2-b]pyridazin-3-yl)-2-(1H-tetrazol-5-yl)benzenesulfonamide]
- pIC50 [1, 7]: 7.56
- pIC50 [2, 8]: 8.27
- pIC50 [3, 9]: 6.78
- Serratia marcescens MITC95 [4, 10]: 12.5 µM
- Escherichia coli MITC95 [5, 11]: 1.563 µM
- Klebsiella pneumoniae MITC95 [6, 12]: 25 µM

Compound: Cc1n[nH]c2c1CN(c1ccc(C(F)(F)F)c(S(N)(=O)=O)c1-c1nnn[nH]1)CC2 [Example 655]
- pIC50 [1, 7]: 9.65
- pIC50 [2, 8]: 9.01
- pIC50 [3, 9]: 8.11
- Serratia marcescens MITC95 [4, 10]: 0.5859 µM
- Escherichia coli MITC95 [5, 11]: 2.344 µM
- Klebsiella pneumoniae MITC95 [6, 12]: 9.375 µM

Compound: NS(=O)(=O)c1c(C(F)(F)F)ccc([C@H]2CC[C@H](NC3CC4(CCNCC4)C3)CC2)c1-c1nnn[nH]1 [Example 685, 3-[4-(7-azaspiro[3.5]non-2-ylamino)cyclohexyl]-2-(1H-tetrazol-5-yl)-6-(trifluoromethyl)benzene sulfonamide]
- pIC50 [1, 7]: 8.31
- pIC50 [2, 8]: 7.52
- pIC50 [3, 9]: 7.12
- Serratia marcescens MITC95 [4, 10]: 6.25 µM
- Escherichia coli MITC95 [5, 11]: 1.563 µM
- Klebsiella pneumoniae MITC95 [6, 12]: 25 µM

Compound: NS(=O)(=O)c1nccc(N2CCC(c3ccncc3)CC2)c1-c1nnn[nH]1 [Example 217, 4-(4-pyridin-4-ylpiperidin-1-yl)-3-(1H-tetrazol-5-yl)pyridine-2-sulfonamide]
- pIC50 [1, 13]: 7.31
- pIC50 [2, 14]: 7.37
- pIC50 [3, 14]: 6.32
- Serratia marcescens expressing IMP-1 (CL5741) MITC95 [4]: 12.5 µM
- Escherichia coli expressing NDM-1 (CLB 30016) MITC95 [5]: 4.688 µM
- Klebsiella pneumoniae expressing VIM-1 (IHMA 599644) MITC95 [6]: 150 µM

Compound: NS(=O)(=O)c1cccc(C2CCC(O)CC2)c1-c1nn[nH]n1 (stereo not drawn) [Example 171, 3-(4-hydroxycyclohexyl)-2-(2H-tetrazol-5-yl)benzenesulfonamide]
- pIC50 [1, 15]: 6.89
- pIC50 [2, 14]: 8.07
- pIC50 [3, 14]: 6.93
- Serratia marcescens expressing IMP-1 (CL5741) MITC95 [4]: 6.25 µM
- Escherichia coli expressing NDM-1 (CLB 30016) MITC95 [5]: 2.344 µM
- Klebsiella pneumoniae expressing VIM-1 (IHMA 599644) MITC95 [6]: 25 µM

Compound: NS(=O)(=O)c1c(C(F)(F)F)ccc([C@H]2CC[C@@H](O)CC2)c1-c1nnn[nH]1 [Example 495]
- pIC50 [1, 7]: 7.66
- pIC50 [2, 8]: 8.73
- pIC50 [3, 9]: 8.37
- Serratia marcescens MITC95 [4, 10]: 0.5859 µM
- Escherichia coli MITC95 [5, 11]: 2.344 µM
- Klebsiella pneumoniae MITC95 [6, 12]: 25 µM

Compound: Nc1nc2c(-c3ccc(CCO)c(S(N)(=O)=O)c3-c3nn[nH]n3)cccc2s1 [Example 531, 3-(2-Aminobenzo[d]thiazol-4-yl)-6-(2-hydroxyethyl)-2-(2H-tetrazol-5-yl)benzenesulfonamide]
- pIC50 [1, 7]: 8.08
- pIC50 [2, 8]: 8.68
- pIC50 [3, 9]: 7.49
- Serratia marcescens MITC95 [4, 10]: 12.5 µM
- Escherichia coli MITC95 [5, 11]: 6.25 µM
- Klebsiella pneumoniae MITC95 [6, 12]: 12.5 µM

Compound: CNCc1ccc(-c2cccc(S(N)(=O)=O)c2-c2nnn[nH]2)cc1 [Example 334, 4′-((methylamino)methyl)-2-(1H-tetrazol-5-yl)-[1,1′-biphenyl]-3-sulfonamide]
- pIC50 [1, 16]: 6.89
- pIC50 [2, 17]: 7.98
- pIC50 [3, 18]: 6.41
- Serratia marcescens MITC95 [4, 19]: 3.125 µM
- Escherichia coli MITC95 [5, 20]: 0.3906 µM
- Klebsiella pneumoniae MITC95 [6, 21]: 9.375 µM

Compound: CC(O)C1CCN(Cc2ccc(-c3cccc(S(N)(=O)=O)c3-c3nnn[nH]3)cc2)C1 (stereo not drawn) [Example 351, 4′-{[3-(1-hydroxyethyl)pyrrolidin-1-yl]methyl}-2-(1H-tetrazol-5-yl)biphenyl-3-sulfonamide]
- pIC50 [1, 16]: 6.38
- pIC50 [2, 17]: 7.74
- pIC50 [3, 18]: 6.48
- Serratia marcescens MITC95 [4, 19]: 3.125 µM
- Escherichia coli MITC95 [5, 20]: 1.563 µM
- Klebsiella pneumoniae MITC95 [6, 21]: 150 µM

Compound: NC[C@H](N)C(=O)NC1CCC(c2ccc(C(F)(F)F)c(S(N)(=O)=O)c2-c2nnn[nH]2)CC1 (stereo partly drawn) [Example 837, (S)-2,3-diamino-N-((1r,4S)-4-(3-sulfamoyl-2-(1H-tetrazol-5-yl)-4-(trifluoromethyl)phenyl)cyclohexyl)propanamide]
- pIC50 [1, 15]: 8.54
- pIC50 [2, 14]: 8.06
- pIC50 [3, 14]: 7.67
- Serratia marcescens MITC95 [4, 22]: 0.5859 µM
- Escherichia coli MITC95 [5, 23]: 1.563 µM
- Klebsiella pneumoniae MITC95 [6, 24]: 6.25 µM

Compound: Cc1nc(CNCc2ccc(-c3cccc(S(N)(=O)=O)c3-c3nnn[nH]3)cc2)no1 [Example 360, 4′-({[(5-methyl-1,2,4-oxadiazol-3-yl)methyl]amino}methyl)-2-(1H-tetrazol-5-yl)biphenyl-3-sulfonamide]
- pIC50 [1, 16]: 6.64
- pIC50 [2, 17]: 8.82
- pIC50 [3, 18]: 7.42
- Serratia marcescens MITC95 [4, 19]: 2.344 µM
- Escherichia coli MITC95 [5, 20]: 2.344 µM
- Klebsiella pneumoniae MITC95 [6, 21]: >200 µM

Compound: NS(=O)(=O)c1nccc(N2CCC(c3ncc[nH]3)CC2)c1-c1nnn[nH]1 [Example 240, 4-[4-(1H-imidazol-2-yl)piperidin-1-yl]-3-(1H-tetrazol-5-yl)pyridine-2-sulfonamide]
- pIC50 [1, 13]: 6.03
- pIC50 [2, 14]: 6.38
- pIC50 [3, 14]: 5.47
- Serratia marcescens expressing IMP-1 (CL5741) MITC95 [4]: 37.5 µM
- Escherichia coli expressing NDM-1 (CLB 30016) MITC95 [5]: 1.172 µM
- Klebsiella pneumoniae expressing VIM-1 (IHMA 599644) MITC95 [6]: 25 µM

Compound: NS(=O)(=O)c1c(C(F)(F)F)ccc(-c2ccc(C3CN(C4CC5(CCNCC5)C4)C3)cc2)c1-c1nnn[nH]1 [Example 805, 4′-[1-(7-azaspiro[3.5]non-2-yl)azetidin-3-yl]-2-(1H-tetrazol-5-yl)-4-(trifluoromethyl)biphenyl-3-sulfonamide]
- pIC50 [1, 15]: 7.71
- pIC50 [2, 14]: 8.42
- pIC50 [3, 14]: 8.12
- Serratia marcescens MITC95 [4, 22]: 6.25 µM
- Escherichia coli MITC95 [5, 23]: 3.125 µM
- Klebsiella pneumoniae MITC95 [6, 24]: 50 µM

Compound: N=C(N)N1CC(c2ccc(-c3ccc(CC4CCNCC4)c(S(N)(=O)=O)c3-c3nn[nH]n3)cc2)C1 [Example 603, 3-[4-[4-(4-piperidylmethyl)-3-sulfamoyl-2-(2H-tetrazol-5-yl)phenyl]phenyl]azetidine-1-carboxamidine]
- pIC50 [1, 7]: 8.33
- pIC50 [2, 8]: 7.67
- pIC50 [3, 9]: 7.50
- Serratia marcescens MITC95 [4, 10]: 1.563 µM
- Escherichia coli MITC95 [5, 11]: 3.125 µM
- Klebsiella pneumoniae MITC95 [6, 12]: 1.563 µM

Compound: CNCC(C)NCc1ccc(-c2cccc(S(N)(=O)=O)c2-c2nn[nH]n2)cc1 (stereo not drawn) [Example 359, 4′-({[1-methyl-2-(methylamino)ethyl]amino}methyl)-2-(2H-tetrazol-5-yl)biphenyl-3-sulfonamide]
- pIC50 [1, 16]: 5.73
- pIC50 [2, 17]: 7.89
- pIC50 [3, 18]: 6.98
- Serratia marcescens MITC95 [4, 19]: 3.125 µM
- Escherichia coli MITC95 [5, 20]: 4.688 µM
- Klebsiella pneumoniae MITC95 [6, 21]: >200 µM

Compound: NS(=O)(=O)c1cccc(COc2ccccc2)c1-c1nnn[nH]1 [Example 142, 3-(phenoxymethyl)-2-(1H-tetrazol-5-yl)benzenesulfonamide]
- pIC50 [1, 15]: 6.38
- pIC50 [2, 14]: 8.09
- pIC50 [3, 14]: 7.09
- Serratia marcescens expressing IMP-1 (CL5741) MITC95 [4]: 6.25 µM
- Escherichia coli expressing NDM-1 (CLB 30016) MITC95 [5]: 1.563 µM
- Klebsiella pneumoniae expressing VIM-1 (IHMA 599644) MITC95 [6]: >200 µM

Compound: NS(=O)(=O)c1cccc(-c2csc(-c3ccncc3)n2)c1-c1nnn[nH]1 [Example 409, 3-[2-(4-pyridyl)thiazol-4-yl]-2-(1H-tetrazol-5-yl)benzenesulfonamide]
- pIC50 [1, 16]: 6.63
- pIC50 [2, 17]: 7.57
- pIC50 [3, 18]: 6.35
- Serratia marcescens MITC95 [4, 19]: 12.5 µM
- Escherichia coli MITC95 [5, 20]: 1.563 µM
- Klebsiella pneumoniae MITC95 [6, 21]: >200 µM

From patent publication US9708336B2, “Metallo-beta-lactamase inhibitors” (priority 2014, dated 2017)
